Legend:
[1] = target: T1, binding between HGF and c-Met (Homo sapiens, UniProt P14210); test: ELISA-like HGF-c-Met binding assay on plate with immobilized recombinant c-Met; conditions: NC set to 1
T1 construct: purchased R&D Systems
Procedure: The effect of the addition of glutathione trisulfide (GSSSG) or lipoic acid trisulfide (LA-SSS) on the binding (affinity) between HGF and c-Met was examined by the following method. GSSSG or LA-SSS was added to recombinant HGF (R&D Systems) at a molar ratio of 1:4000 (HGF:GSSSG or HGF:LA-SSS) (FIG. 1(A)) or 1:8000 (HGF:GSSSG or HGF:LA-SSS) (FIG. 1(B)). An ELISA-like HGF-c-Met binding assay was performed using a 96-well cluster plate with immobilized recombinant c-Met (R&D Systems) (Tatsumni et al. 2002; the principle of this method is schematically shown in FIG. 1(C)). Table 2 and FIGS. 1(A) and (B) show the relative values of each experimental group, with the A450-535 nm (absorbance at 450 nm minus absorbance at 535 nm) of the negative control (NC) set to 1.
In Table 2 and FIG. 1, NC: negative control (no addition), PC: positive control (HGF only addition), PC′: addition of solvent used to dissolve GSSSG and HGF, A′: addition of solvent used to dissolve GSSSG, GSSSG, and HGF (1 ng/ml), A: addition of solvent used to dissolve GSSSG and GSSSG, PC″: addition of solvent used to dissolve LA-SSS and HGF, B′: addition of solvent used to dissolve LA-SSS, LA-SSS, and HGF (1 ng/ml), B: addition of solvent used to dissolve LA-SSS and LA-SSS.

[2] = test system: muscle stem cells (satellite cells); test: Muscle stem cell (satellite cell) activation by HGF, BrdU pulse labeling; type: cell-based, rat; conditions: for Percentage of BrdU-positive cells (%): NC 46.9; for percentage of BrdU-positive cells / enhancing effect on muscle stem cell activation by HGF: HGF 3 ng/ml; for percentage of BrdU-positive cells: trisulfide at 4000 or 8000 moles per 1 mole HGF, vs. NC, p<0.05; for enhancing effect on muscle stem cell activation by HGF: trisulfide at 8000 moles per 1 mole HGF
Procedure: The effect of the addition of GSSSG or LA-SSS on the muscle stem cell activation effect of HGF (3 ng/ml) was examined by the following method. GSSSG or LA-SSS was added to recombinant HGF (R&D Systems) at a molar ratio of 1:4000 (HGF:GSSSG or HGF:LA-SSS) (FIG. 2(A)) or 1:8000 (HGF:GSSSG or HGF:LA-SSS) (FIG. 2(B)). The activation effect of HGF was measured using a culture system of muscle stem cells (satellite cells). Quiescent muscle stem cells were isolated from the skeletal muscle of 8-9-month-old mature rats in accordance with a modified method of Allen et al. (1997) (Tatsumi et al. 2006), and cultured for 24 hours in DMEM containing 10% normal horse serum (DMEM-10% HS, pH 7.2). HGF mixed with GSSSG or LA-SSS was added to a final concentration of 3 ng/ml, and after further culture for 24 hours, the activation rate of muscle stem cells was measured by the bromodeoxyuridine (BrdU) pulse labeling method. Cells that had incorporated BrdU were visualized with an anti-BrdU monoclonal antibody, and the percentage of positive cells was used as an indicator of muscle stem cell activation (Tatsumi et al. 1998).
In FIG. 2, NC: negative control (no addition), PC: positive control (HGF only addition), A′: addition of GSSSG and HGF (3 ng/ml), A: addition of GSSSG, B′: addition of LA-SSS and HGF (3 ng/ml), B: addition of LA-SSS.
The effect of the addition of GSSSG or LA-SSS on the muscle stem cell activation effect of HGF (1 ng/ml) was examined in the same manner as in Example 2, except that the final concentration of HGF was 1 ng/ml instead of 3 ng/ml.
In Table 3 and FIG. 4, NC: negative control (no addition), PC′: positive control (HGF (I ng/ml) only addition), A′: addition of GSSSG and HGF (I ng/ml), A: addition of GSSSG, B′: addition of LA-SSS and HGF (1 ng/ml), B: addition of LA-SSS, PC: positive control (HGF (3 ng/ml) only addition).

[3] = 1:4000 series, trisulfide and its solvent without HGF
[4] = 1:8000 series, trisulfide and its solvent without HGF
[5] = HGF:A,B molar ratio 1:4000 series, HGF 1 ng/mL present, PC′/PC″ = HGF plus solvent only
[6] = HGF:A,B molar ratio 1:8000 series, HGF 1 ng/mL present, PC′/PC″ = HGF plus solvent only
[7] = HGF 1 ng/ml present, trisulfide at 1:8000 molar ratio, PC′ = HGF 1 ng/ml only

T1 sequence (P14210 32-494 limits assumed): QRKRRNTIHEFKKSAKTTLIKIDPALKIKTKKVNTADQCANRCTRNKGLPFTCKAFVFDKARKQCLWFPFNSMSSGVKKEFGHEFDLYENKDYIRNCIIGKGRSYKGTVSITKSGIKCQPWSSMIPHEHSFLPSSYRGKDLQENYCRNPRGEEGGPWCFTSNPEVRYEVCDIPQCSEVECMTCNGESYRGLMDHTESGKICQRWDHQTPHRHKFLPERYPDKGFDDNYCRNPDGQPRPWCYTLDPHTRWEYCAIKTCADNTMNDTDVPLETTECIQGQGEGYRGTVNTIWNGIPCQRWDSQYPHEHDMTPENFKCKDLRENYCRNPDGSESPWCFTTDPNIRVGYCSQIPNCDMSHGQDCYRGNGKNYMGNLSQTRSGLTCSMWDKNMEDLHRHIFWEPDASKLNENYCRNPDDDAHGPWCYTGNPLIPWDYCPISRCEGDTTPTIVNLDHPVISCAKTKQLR

Row | A450-535 um (Relative units) (Average value) [1, 3] | A450-535 um (Relative units) (Average value) [1, 4] | A450-535 um (Relative units) (Average value) [1, 5] | A450-535 um (Relative units) (Average value) [1, 6] | Molecule | Percentage of BrdU-positive cells (%) [2, 7] | percentage of BrdU-positive cells [2] | enhancing effect on muscle stem cell activation by HGF [2] | Percentage of BrdU-positive cells (%) ([2]; trisulfide alone, without HGF) | other results
1 | 1.21 Relative units | 1.16 Relative units | increased | significantly increased | N[C@@H](CCC(=O)N[C@@H](CSSSC[C@H](NC(=O)CC[C@H](N)C(=O)O)C(=O)NCC(=O)O)C(=O)NCC(=O)O)C(=O)O [GSSSG, glutathione trisulfide] | increased | significantly increased | not observed | 47.5% | A450-535 um (Relative units) (Average value) ([1]; HGF:A,B molar ratio 1:4000 series, HGF 1 ng/mL present, PC′/PC″ = HGF plus solvent only, listed as A′): 9.67 Relative units; A450-535 um (Relative units) (Average value) ([1]; HGF:A,B molar ratio 1:8000 series, HGF 1 ng/mL present, PC′/PC″ = HGF plus solvent only, listed as A′): 11.22 Relative units; Percentage of BrdU-positive cells (%) ([2]; HGF 1 ng/ml present, trisulfide at 1:8000 molar ratio, PC′ = HGF 1 ng/ml only, listed as A′): 57.5%
2 | 1.28 Relative units | 1.14 Relative units | increased | significantly increased | O=C(O)CCCCC1CCSSS1 (stereo not drawn) [LA-SSS, lipoic acid trisulfide] | significantly increased | significantly increased | not observed | 48.8% | A450-535 um (Relative units) (Average value) ([1]; HGF:A,B molar ratio 1:4000 series, HGF 1 ng/mL present, PC′/PC″ = HGF plus solvent only, listed as B'): 9.55 Relative units; A450-535 um (Relative units) (Average value) ([1]; HGF:A,B molar ratio 1:8000 series, HGF 1 ng/mL present, PC′/PC″ = HGF plus solvent only, listed as B′): 19.60 Relative units; Percentage of BrdU-positive cells (%) ([2]; HGF 1 ng/ml present, trisulfide at 1:8000 molar ratio, PC′ = HGF 1 ng/ml only, listed as B′): 64.2%
3 | – | – | – | – | HGF: recombinant hepatocyte growth factor (R&D Systems); positive control, alone or with trisulfide solvent | significantly increased | – | – | – | A450-535 um (Relative units) (Average value) ([1]; HGF:A,B molar ratio 1:4000 series, HGF 1 ng/mL present, PC′/PC″ = HGF plus solvent only, listed as PC′): 9.39 Relative units; A450-535 um (Relative units) (Average value) ([1]; HGF:A,B molar ratio 1:4000 series, HGF 1 ng/mL present, PC′/PC″ = HGF plus solvent only, listed as PC″): 9.00 Relative units; A450-535 um (Relative units) (Average value) ([1]; HGF:A,B molar ratio 1:8000 series, HGF 1 ng/mL present, PC′/PC″ = HGF plus solvent only, listed as PC′): 10.21 Relative units; A450-535 um (Relative units) (Average value) ([1]; HGF:A,B molar ratio 1:8000 series, HGF 1 ng/mL present, PC′/PC″ = HGF plus solvent only, listed as PC″): 10.04 Relative units; A450-535 um (Relative units) (Average value) ([1]; positive control, HGF only addition): 9.85 Relative units; Percentage of BrdU-positive cells (%) ([2]; HGF 1 ng/ml present, trisulfide at 1:8000 molar ratio, PC′ = HGF 1 ng/ml only, listed as PC′): 55.3%; Percentage of BrdU-positive cells (%) ([2]; HGF 3 ng/ml only addition): 65.9%
